Reference: the NIST ThermoML archive (doi:10.1016/j.jct.2010.06.009)

Experiment: activity coefficient (dimensionless); of the first substance listed, at infinite dilution; xn = mol fraction of the nth substance listed
Conditions: 101 kPa, Liquid, Chromatography, x1 = 0

c1ccccc1 [benzene] + CCCCC[n+]1ccccc1.O=S(=O)([N-]S(=O)(=O)C(F)(F)F)C(F)(F)F
Conditions	activity coefficient
303.2 K	0.98
312.6 K	0.99
323.2 K	1.01
333.1 K	1.02
343.3 K	1.03
353.5 K	1.04

c1ccccc1 [benzene] + CCCC[n+]1ccccc1.O=S(=O)([N-]S(=O)(=O)C(F)(F)F)C(F)(F)F
Conditions	activity coefficient
302.8 K	1.33
312.6 K	1.34
323.2 K	1.35
333.2 K	1.35
343.1 K	1.35
353.3 K	1.36

c1ccccc1 [benzene] + CC[n+]1ccccc1.O=S(=O)([N-]S(=O)(=O)C(F)(F)F)C(F)(F)F
Conditions	activity coefficient
302.6 K	1.5
313 K	1.49
323.2 K	1.47
333.1 K	1.43
343 K	1.39
353.1 K	1.36

C1CCCCC1 [cyclohexane] + CCCCC[n+]1ccccc1.O=S(=O)([N-]S(=O)(=O)C(F)(F)F)C(F)(F)F
Conditions	activity coefficient
303.2 K	7.35
312.7 K	6.67
323.4 K	5.91
333.3 K	5.3
343.3 K	4.66
353.3 K	4.06

C1CCCCC1 [cyclohexane] + CCCC[n+]1ccccc1.O=S(=O)([N-]S(=O)(=O)C(F)(F)F)C(F)(F)F
Conditions	activity coefficient
302.9 K	9.66
312.4 K	8.64
323.2 K	7.88
333.2 K	6.7
343.3 K	5.61
353.4 K	4.72

C1CCCCC1 [cyclohexane] + CC[n+]1ccccc1.O=S(=O)([N-]S(=O)(=O)C(F)(F)F)C(F)(F)F
Conditions	activity coefficient
302.8 K	11.4
313.3 K	9.56
323.1 K	8.04
333 K	6.76
342.9 K	5.63
353 K	4.65

CCO [ethanol] + CCCCC[n+]1ccccc1.O=S(=O)([N-]S(=O)(=O)C(F)(F)F)C(F)(F)F
Conditions	activity coefficient
302.8 K	2.09
313.5 K	1.86
323.4 K	1.67
333.3 K	1.5
343.2 K	1.35
353.4 K	1.19

CCO [ethanol] + CCCC[n+]1ccccc1.O=S(=O)([N-]S(=O)(=O)C(F)(F)F)C(F)(F)F
Conditions	activity coefficient
302.5 K	2.67
313.4 K	2.26
323.1 K	2.02
333.1 K	1.8
343.1 K	1.61
352.9 K	1.45

CCO [ethanol] + CC[n+]1ccccc1.O=S(=O)([N-]S(=O)(=O)C(F)(F)F)C(F)(F)F
Conditions	activity coefficient
302.5 K	2.63
313.1 K	2.36
323 K	2.13
332.9 K	1.91
342.9 K	1.71
353 K	1.54

CCc1ccccc1 [ethylbenzene] + CCCCC[n+]1ccccc1.O=S(=O)([N-]S(=O)(=O)C(F)(F)F)C(F)(F)F
Conditions	activity coefficient
303.1 K	1.93
312.8 K	1.95
323.4 K	1.96
333.4 K	1.98
343.3 K	1.99
353.5 K	2

CCc1ccccc1 [ethylbenzene] + CCCC[n+]1ccccc1.O=S(=O)([N-]S(=O)(=O)C(F)(F)F)C(F)(F)F
Conditions	activity coefficient
302.8 K	2.74
312.6 K	2.75
323.3 K	2.77
333.2 K	2.77
343.2 K	2.78
353.3 K	2.78

CCc1ccccc1 [ethylbenzene] + CC[n+]1ccccc1.O=S(=O)([N-]S(=O)(=O)C(F)(F)F)C(F)(F)F
Conditions	activity coefficient
303.4 K	3.34
313.1 K	3.36
323.2 K	3.37
333.1 K	3.39
343 K	3.4
353.1 K	3.41

CCCCCCC [heptane] + CCCCC[n+]1ccccc1.O=S(=O)([N-]S(=O)(=O)C(F)(F)F)C(F)(F)F
Conditions	activity coefficient
303.2 K	16.5
312.7 K	14.6
323.4 K	12.6
333.3 K	11
343.3 K	9.35
353.3 K	7.98

CCCCCCC [heptane] + CCCC[n+]1ccccc1.O=S(=O)([N-]S(=O)(=O)C(F)(F)F)C(F)(F)F
Conditions	activity coefficient
302.8 K	21.8
312.4 K	19.4
323.2 K	16.8
333.2 K	13.8
343.3 K	11.4
353.4 K	9.35

CCCCCCC [heptane] + CC[n+]1ccccc1.O=S(=O)([N-]S(=O)(=O)C(F)(F)F)C(F)(F)F
Conditions	activity coefficient
302.8 K	29.3
313.3 K	23.1
323.1 K	18.6
333 K	14.7
342.9 K	11.8
353 K	9.37

C=CCCCC [hex-1-ene] + CCCCC[n+]1ccccc1.O=S(=O)([N-]S(=O)(=O)C(F)(F)F)C(F)(F)F
Conditions	activity coefficient
302.9 K	6.22
312.8 K	5.46
322.6 K	4.84
333.4 K	4.17
343.4 K	3.55
353.4 K	3.08

C=CCCCC [hex-1-ene] + CCCC[n+]1ccccc1.O=S(=O)([N-]S(=O)(=O)C(F)(F)F)C(F)(F)F
Conditions	activity coefficient
302.3 K	8.87
312.9 K	7.45
323 K	6.38
332.8 K	5.29
343 K	4.33
352.8 K	3.71

C=CCCCC [hex-1-ene] + CC[n+]1ccccc1.O=S(=O)([N-]S(=O)(=O)C(F)(F)F)C(F)(F)F
Conditions	activity coefficient
302.6 K	11.5
313.1 K	9.42
322.9 K	7.86
332.8 K	6.54
342.9 K	5.34
353 K	4.4

CCCCCC [hexane] + CCCCC[n+]1ccccc1.O=S(=O)([N-]S(=O)(=O)C(F)(F)F)C(F)(F)F
Conditions	activity coefficient
303.3 K	9.78
312.7 K	8.36
323.4 K	7
333.3 K	5.98
343.3 K	5.01
353.3 K	4.25

CCCCCC [hexane] + CCCC[n+]1ccccc1.O=S(=O)([N-]S(=O)(=O)C(F)(F)F)C(F)(F)F
Conditions	activity coefficient
302.8 K	11.9
312.4 K	10.4
323.2 K	8.58
332.8 K	7.59
343.3 K	5.85
353.4 K	4.75

CCCCCC [hexane] + CC[n+]1ccccc1.O=S(=O)([N-]S(=O)(=O)C(F)(F)F)C(F)(F)F
Conditions	activity coefficient
302.8 K	13.8
313.3 K	10.8
323.1 K	8.59
333 K	6.86
342.9 K	5.46
353 K	4.38

CO [methanol] + CCCCC[n+]1ccccc1.O=S(=O)([N-]S(=O)(=O)C(F)(F)F)C(F)(F)F
Conditions	activity coefficient
302.8 K	1.62
313.5 K	1.46
323.4 K	1.31
333.3 K	1.18
343.2 K	1.06
353.4 K	0.94

CO [methanol] + CCCC[n+]1ccccc1.O=S(=O)([N-]S(=O)(=O)C(F)(F)F)C(F)(F)F
Conditions	activity coefficient
302.7 K	2
313.4 K	1.73
323.1 K	1.56
333.1 K	1.39
343.1 K	1.25
353.3 K	1.12

CO [methanol] + CC[n+]1ccccc1.O=S(=O)([N-]S(=O)(=O)C(F)(F)F)C(F)(F)F
Conditions	activity coefficient
302.5 K	1.86
313.1 K	1.69
323 K	1.53
332.9 K	1.38
342.9 K	1.26
353 K	1.13
